{
  "source": "paper PMC549409",
  "about": "(Nucleic Acids Research, 2005)",
  "molecular_target": "Has1p (Saccharomyces cerevisiae, UniProt Q03532)",
  "sequence (Q03532 whole entry)": "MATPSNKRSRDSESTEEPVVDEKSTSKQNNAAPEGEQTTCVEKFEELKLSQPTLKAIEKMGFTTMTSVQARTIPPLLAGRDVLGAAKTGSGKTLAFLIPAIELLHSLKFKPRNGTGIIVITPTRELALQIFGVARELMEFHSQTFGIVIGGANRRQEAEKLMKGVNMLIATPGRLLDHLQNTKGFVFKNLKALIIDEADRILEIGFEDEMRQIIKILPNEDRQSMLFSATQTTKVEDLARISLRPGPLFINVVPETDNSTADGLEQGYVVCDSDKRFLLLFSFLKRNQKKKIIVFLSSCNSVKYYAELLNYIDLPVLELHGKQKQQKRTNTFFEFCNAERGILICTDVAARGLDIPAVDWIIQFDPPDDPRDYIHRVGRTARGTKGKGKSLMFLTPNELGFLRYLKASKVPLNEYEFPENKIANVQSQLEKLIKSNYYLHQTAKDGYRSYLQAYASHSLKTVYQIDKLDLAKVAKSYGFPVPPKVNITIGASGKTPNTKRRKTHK",
  "experiment": "malachite green ATPase assay, ADP competition",
  "assay_type": "biochemical",
  "settings": "1 mM ADP with 1 mM ATP; total yeast RNA; pH 6.5; 2 mM MgCl2; 30°C; data not shown",
  "data": [
    {"compound": "Nc1ncnc2c1ncn2[C@@H]1O[C@H](COP(=O)(O)OP(=O)(O)O)[C@@H](O)[C@H]1O", "note": "[ADP]", "values": [
      {"measurement": "fold reduction of ATPase activity at 1 mM ADP", "result": 5, "unit": "fold"}
    ]}
  ]
}
